# Assays:
# [1] = system: A-498 kidney carcinoma cells; assay: MTT cell proliferation assay, A-498; assay type: cell-based, human; conditions: Homo sapiens, A498, 48 h, ±SEM
# Method: Cells were cultured in 96-well plate, at cell density of 1.2–1.8 × 10^4 cells/well, using Dulbecco’s Modified Eagle Medium (Invitrogen^TM, Carlsbad, CA, USA) supplemented with 10% (w/v) fetal bovine serum (Hyclone^TM, Marlborough, MA, USA), 10 ug/mL of insulin (Sigma-Aldrich^TM, St. Louis, MO, USA), and 1% (w/v) penicillin-streptomycin (Sigma-Aldrich^TM, St. Louis, MO, USA). Following 24h-incubation period under 5% CO2 at 37 °C, cells were treated with compounds’ serial concentrations (0.1 µM–100 µM) in DMSO, where the DMSO final concentration in the culture medium never exceeded 0.2% (v/v). Subsequently, the treated microplates were incubated for 48 h at 5% CO2/37 °C prior to examination under the inverted microscope and proceeding for the MTT assay. The culture medium was discarded and 100 µL of complete medium comprising 5 mg/mL MTT dye were dispensed within every well, then plates were reincubated for 2 h at 5% CO2/37 °C. […] Color intensity within each well was measured spectrophotometrically using the ROBONIK-P2000® ELISA microplate reader (Bio-Tek^TM, Winooski, VT, USA) at 450 nm while subtracting the background absorbance of multi well plates at 690 nm. The experiment was conducted in triplicates and IC50 values were estimated through linear regression between the logarithm-transformed compound concentrations and corresponding % cell viability = (mean absorbance in test wells/mean absorbance in control wells) ∗ 100, having the response variable slope (four parameters) for all samples.
# A-498 cells = assay: cell cycle analysis (PI, flow cytometry) in A-498; assay type: cell-based, human; conditions: 6 µM, 48 h
# Method: The efficient antiproliferative activity of compound 9c on the kidney carcinoma A-498 cell line (Table 2) prompted a further investigation of its mechanistic growth inhibitory action. Thus, the impact of bumetanide analog 9c at 6 µM for 48 h on cell cycle distribution and induction of apoptosis in A-498 cells was next explored. […] Analysis of apoptosis was performed to determine the mode of cell death induced by 9c in A-498 cells. Compound 9c induced both early and late apoptosis in A-498 cells at 6 µM when compared to the untreated control cells (p < 0.01 and p < 0.001, respectively) (Figure 5A). […]
# Figure 4 (A) Effect of compound 9c on the cell cycle and apoptosis in kidney carcinoma cell line A-498. […] Cells were then fixed, stained with propidium iodide (PI), and analyzed by flow cytometry. […] (B) Quantitative analysis of 4N (G2/M), 2N (G0G1), > 2N (S), and < 2N (sub-G1). DNA content was determined with CellQuest software. […]
# A-498 Cells were seeded at a density of 1 × 10^5 cells/well in 24-well plates and treated with compound 9c (6 µM) for 48 h. […] The DNA content of cells (10,000 cells/experimental group) was analyzed by flow cytometer at 488 nm using a FACSCalibur flow cytometer (BD Biosciences, San Jose, CA, USA) and all data were recorded and analyzed using the CellQuest Software (Becton-Dickinson Biosciences, San Jose, CA, USA). […]
compound,measurement,setting,value
CCCCNc1cc(-c2n[nH]c(=S)n2-c2ccc(Br)cc2)cc(S(N)(=O)=O)c1Oc1ccccc1 [Compound 9c],IC50,[1],5.07 ± 0.11 µM
same,cells in the sub-G1 phase,A-498 cells; control 1.3%,25.5%
same,cell population at the G2/M stage,A-498 cells; untreated control 10.8%,48.6%

# Reference: publication PMC7558282, “The Anticancer Activity for the Bumetanide-Based Analogs via Targeting the Tumor-Associated Membrane-Bound Human Carbonic Anhydrase-IX Enzyme” (Pharmaceuticals, 2020)
